Our source for the TGI and GI50 values is PubChem BioAssay (NCI).

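Five concentrations, 48 hours, 96-well plates. GI50 is the concentration that inhibits growth by half. TGI: concentration producing complete growth inhibition.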

Holding throughout (experiment): growth of human tumour cells (NCI), 48 h
Test [1] deals with SK-MEL-5 melanoma.
Test [2] deals with SNB-19 CNS.
Test [3] concerns DU-145 prostate.
Test [4] concerns HT29 colon.
The subject of test [5] is OVCAR-5 ovarian.
For test [6], the system named is UACC-257 melanoma.
Test [7] relates to UO-31 renal.
Test [8] has as its system BT-549 breast.
Test [9] has as its system NCI-H226 lung.
Test [10] has as its system MDA-MB-231 breast.

`O=c1[nH]c(=O)n(CCOc2ccccc2)cc1Nc1ccccc1`: the TGI in test [1], in [2], in test [3], in test [4], in test [5] and in test [6] was more than 100 µM in each case. Moreover, in [7], the TGI was more than 100 µM.
For `COc1cc(/C=N\N(C)C)cc(/C=N/N(C)C)c1O`, the TGI in test [1] was more than 100 µM; in [8], 61.9 µM; in test [2], more than 100 µM; in test [3], more than 100 µM; in [9], 50.6 µM; in test [4], 48 µM. Besides, the TGI stood at 98.5 µM in test [6], 80 µM in test [10] and 79.5 µM in [7].
Consider `CCN(CC)CCn1nc(N)c2nc3ccccc3nc21`, for which the TGI in [8], in test [2], in test [9], in test [4], in test [5] and in [6] was more than 100 µM throughout. For the same compound, the TGI in [7] is more than 100 µM.
Turning to `CC(=O)c1sc2c(c1OC(=O)c1ccco1)c(=O)n(-c1ccccc1)c(=S)n2-c1ccccc1`, the TGI in test [1] is 18.9 µM; in test [8] it was 62.3 µM; in test [2], 88.2 µM; in test [3] it was 76.9 µM; in test [9] it was 16.1 µM; in [4], more than 100 µM. For the same compound, the TGI in [6] was 88.7 µM; in [10], 47.1 µM; in [7], 49.3 µM.
Regarding `O=P1(O)c2ccccc2CCc2ccccc21`, the TGI in test [1], in [8], in test [2], in [3], in [9] and in [6] was more than 100 µM in each case. In addition, the TGI in test [10] and in test [7] was more than 100 µM in each case.
Turning to `Cc1cc2c(cc1C(=O)CCC(=O)O)CC1(C2)Cc2cc(C)c(C(=O)CCC(=O)O)cc2C1`, the TGI in test [1], in [2], in test [3], in test [9], in test [4] and in [5] was more than 100 µM in each case. The TGI in test [6], in test [10] and in test [7] was more than 100 µM throughout.
On to `COc1cc(/C=C2/SC(c3ccccc3)N(c3ccccc3Cl)C2=O)cc(OC)c1OC` (stereo not given), for which the TGI is 33.6 µM in test [1]; 85.1 µM in test [8]; more than 100 µM in [2]; more than 100 µM in test [3]; more than 100 µM in [9]; more than 100 µM in test [5]. For the same compound, the TGI in test [6], in test [10] and in test [7] was more than 100 µM each time.
Take `CC(C)(C)/C(=N\Nc1nc2ccccc2[nH]1)c1ccccn1`: the TGI in test [1], in [8], in test [2], in [3], in test [9] and in test [4] was more than 100 µM each time. Further, the TGI in [6], in test [10] and in [7] was more than 100 µM in each case.
For the compound `OC1(c2ccccc2)C2CCN(CC2)C1CN1CCOCC1` (stereo not given), the TGI in [1], in test [2], in test [3], in test [9], in test [4] and in test [5] was more than 100 µM throughout. Also, the TGI in test [6], in test [10] and in test [7] was more than 100 µM each time.
Regarding `O=C(O)CCCn1nnc2c(=O)[nH][nH]c(=O)c21`, the TGI in test [1], in test [8], in test [2], in test [3], in test [4] and in test [5] was more than 100 µM in each case. The TGI in test [6], in test [10] and in test [7] was more than 100 µM throughout.
Consider `[Cl-].[Rh+3].c1cnc2c(c1)ccc1cccnc12.c1cnc2c(c1)ccc1cccnc12.c1cnc2c(c1)ccc1cccnc12`, for which the TGI in test [1] is more than 100 µM; in test [4] it was more than 100 µM; in test [5] it was more than 100 µM; in test [6], 92.5 µM; in [7], more than 100 µM.
On to `O=C(N/N=C/C=C/c1ccccc1)[C@H](O)[C@@H](O)C(=O)N/N=C/C=C/c1ccccc1`, for which the TGI in test [1], in test [2], in test [5], in [6] and in [7] was more than 100 µM in each case.
Consider `OCCCNc1nc(=S)[nH]c2[nH]ncc12`, for which the GI50 is 31.3 µM in test [1]; 46.8 µM in test [8]; more than 100 µM in test [2]; 41.3 µM in test [3]; 27.6 µM in test [9]; 54.8 µM in test [4]. The GI50 is 45.8 µM in test [5], 68 µM in test [6] and 44.1 µM in test [7]. The TGI in test [1] is more than 100 µM; in test [8] it was more than 100 µM; in test [2], more than 100 µM; in [3] it was more than 100 µM; in [9] it was 72.6 µM; in [4], more than 100 µM. The TGI in test [5], in test [6] and in test [7] was more than 100 µM in each case.
Regarding `c1ccc2c(c1)CC1=C(O2)c2ccccc2OC1`, the TGI in [1] is 44.3 µM; in test [8] it was 51.1 µM; in test [3], more than 100 µM; in test [9] it was more than 100 µM; in test [4] it was more than 100 µM; in test [5] it was more than 100 µM. Also, the values for the TGI in test [6], in test [10] and in test [7] were more than 100 µM, 76.2 µM and more than 100 µM, respectively.
On to `O=C(O)c1ccccc1/C=N/NC1=NCCN1`, for which the TGI in test [1], in test [8], in [2], in test [9], in test [4] and in test [5] was more than 100 µM each time. Further, the TGI in [6], in [10] and in test [7] was more than 100 µM throughout.
`COc1ccc(CC2CCc3nc(N)nc(N)c3C2)cc1OC` (stereo not given): the TGI was 18.5 µM in [1]; 51.7 µM in test [8]; more than 89 µM in [2]; 42.4 µM in [9]; more than 24.5 µM in test [4]; more than 100 µM in test [5]. The figures for the TGI in [6], in test [10] and in test [7] were more than 54.4 µM, more than 75.2 µM and more than 100 µM, respectively.
For the compound `Cc1c(C)c(C)n(C2OC(CO)C(O)C(O)C2O)c(=S)c1C#N` (stereo not given), the TGI in test [1], in [2], in [3], in test [9], in test [4] and in test [5] was more than 100 µM throughout. The TGI in test [6], in test [10] and in test [7] was more than 100 µM throughout.
For the compound `CCCCC(=O)c1ccc2ccccc2c1O`, the TGI in test [1], in [8], in test [2], in test [3], in test [9] and in test [4] was more than 100 µM throughout. Moreover, the TGI in test [6], in test [10] and in test [7] was more than 100 µM each time.
With `CN1CCN(c2ccc3[nH]c(-c4cc(O)c5c(nc(CO)n5C)c4O)nc3n2)CC1`, the TGI was more than 100 µM in [8]; more than 100 µM in test [2]; more than 100 µM in test [3]; 96.5 µM in [9]; more than 100 µM in test [4]; more than 100 µM in test [5]. The TGI in [6] is more than 100 µM; in [10] it was 63.1 µM; in [7], more than 100 µM.
For the compound `OC1(c2ccc(Cl)cc2)C(N2CCCC2)c2ccccc2C2=NCCN21` (stereo not given), the TGI in test [1] is 28.4 µM; in test [8] it was 65.2 µM; in test [2], more than 100 µM; in [3], more than 100 µM; in test [4], 32.4 µM; in test [5], more than 100 µM. Also, the TGI was 40.6 µM in [6], more than 100 µM in test [10] and more than 100 µM in test [7].
`CCOC(=O)N(NC(=O)NC(C)C)c1ccccc1`: the TGI in [1], in test [8], in test [2], in test [9], in test [4] and in [5] was more than 100 µM throughout. Besides, the TGI in test [6], in test [10] and in test [7] was more than 100 µM throughout.
On to `CC(=N)OC1CC2CCC1(C)C2(C)C` (stereo not given), for which the TGI in test [1], in test [8], in [3], in test [9], in test [4] and in test [5] was more than 100 µM each time. Moreover, the TGI in test [6], in test [10] and in test [7] was more than 100 µM throughout.
Consider `O=c1c2ccccc2[nH]c2c(Cl)cc(Cl)c(NC3CCCCC3)c12`, for which the TGI in test [1] was more than 100 µM; in test [8], 67.3 µM; in test [2], 38.8 µM; in test [9] it was 44.4 µM; in test [4], 30.6 µM; in [5], 53.9 µM. Further, the TGI in test [6] amounted to 69.5 µM; in test [10], 74.3 µM; in [7], 33.5 µM.
Regarding `CCOCc1c(C)cc(C)c(C2C(C(=O)c3ccccc3)N3c4ccccc4C=CC3C2(C#N)C(=O)OCC)c1C` (stereo not given), the TGI is 33.2 µM in test [1]; 75.8 µM in test [8]; more than 100 µM in [2]; more than 100 µM in [3]; more than 100 µM in test [4]; more than 100 µM in test [5]. Besides, the TGI in test [6] and in test [7] was more than 100 µM each time.
`Oc1c2cc(Cl)cc1COCc1cc(Cl)cc(c1O)COCc1cc(Cl)cc(c1O)COC2`: the TGI in test [1], in test [8], in test [2], in [3], in test [9] and in [5] was more than 100 µM each time. For the same compound, the TGI in [6] and in test [7] was more than 100 µM each time.
`Cc1ccc(/C(Cl)=C/C=C(C#N)C#N)cc1`: the TGI in test [1] was 4.01 µM; in test [2], 24 µM; in [3], 23.9 µM; in test [9], 17.2 µM; in [5], 7.48 µM; in test [6], 6.31 µM. In addition, the TGI in test [10] is 6.33 µM; in [7] it was more than 100 µM.
Regarding `CCC(C)(C)C1CCC2c3c([nH]c4ccccc34)C3C(=O)N(c4ccc(OC)cc4)C(=O)C3C2C1` (stereo not given), the TGI in test [8] amounted to 42.6 µM; in [2] it was 86.2 µM; in test [3] it was 28.9 µM; in test [9], 37.3 µM; in test [4], 24.9 µM; in test [5] it was 45.6 µM. For the same compound, the TGI was more than 100 µM in test [6], 32.3 µM in test [10] and more than 100 µM in test [7].
Consider `COC(=O)/C=C(/C=C1/C(C#N)=C(N)N(c2ccc(Cl)cc2)C1(C)/C(=C/C(=O)OC)C(=O)OC)C(=O)OC` (stereo not given), for which the TGI in test [2], in test [3], in test [4], in test [5], in [6] and in [10] was more than 100 µM each time. The compound further yielded a TGI in [7] of more than 100 µM.
Take `Nc1cccnc1NCC1(CO)CCCC1`: the TGI in test [1], in [8], in [3], in [9], in [4] and in test [5] was more than 100 µM in each case. Also, the TGI in test [6], in test [10] and in [7] was more than 100 µM each time.
As for `O=C1c2[nH]c3ccc(Br)cc3c2CCN1Cc1ccc(Cl)cc1`, the TGI in test [1] was 23 µM; in [2], 32.7 µM; in [3], 28.3 µM; in [4] it was more than 100 µM; in [5] it was 26.2 µM; in [6], 30 µM. Moreover, the TGI is 28.7 µM in test [10] and 31.1 µM in test [7].
